Entries after “also recorded” stand apart in the source; their conditions may differ.
Key:
[1] = tested on: circulating HSC (GM-CFU, LPP-CFU, HPP-CFU, CAFC, LTC-IC); experiment: Mobilization of HSC by stage of differentiation, culture of blood mononuclear cells (Example 7); format: in vivo, Balb/c mice; details: AZT 50 mg/kg, MDM 25 mg/kg or mixture once daily for three days; blood 24 hours after last administration
Protocol: In all cases, the culture conditions, especially their duration, were chosen to permit an optimal detection of the different populations in question. For this study, the effect of injecting saline (X--), AZT at 50 mg/kg, MDM at 25 mg/kg and the mixture of the two on the number of circulating HSC were compared. The mononuclear cells after purification were cultured for 5 days in order to count the GM-CFU (for granulocyte-macrophage colony forming units), for 28 days to count the low proliferating potential (LPP) colony forming units and the high proliferating potential (HPP) CFU. The CAFC were counted after 14 days of culture. The LTC-IC after 28 days. The results are presented in FIGS. 14a, 14b, 14c and 14d, respectively. The mice (10 Balb/c per group) received once daily and for three consecutive days either physiological saline, or AZT, or MDM or the mixture of the two under the above dose conditions. Twenty-four hours after the last administration, the blood of all the mice in each group was collected. For the experiments depicted in FIGS. 14a, 14b and 14c, the mononuclear cells were then separated on density gradients and cultured in a semisolid medium for a period of 5 days for the GM-CFU and 28 days for the LPP-CFU. […]

[2] = tested on: normal circulating leukocytes (predominantly neutrophils and lymphocytes) and immature circulating leukocytes (myelocytes); experiment: Muradimetide administered alone intravenously for 4 consecutive days, circulating cell counts (Example 1); format: in vivo, mice; details: for No. of Lymphocytes / No. of Myelocytes / No. of Neutrophils: 25 mg/kg i.v.; for No. of Lymphocytes / No. of Myelocytes / No. of Neutrophils / No. of Leukocytes: 4 consecutive days; for No. of Leukocytes: Muradimetide 25 mg/kg i.v.
Protocol: Table 1 below depicts the leukocyte, neutrophil, lymphocyte and myelocyte counts as a function of the time after treatment with Muradimetide alone administered at a dose of 25 mg/kg. The treatment is performed for 4 consecutive days by intravenous injection.

[3] = tested on: circulating neutrophils, leukocytes, monocytes and myelocytes; experiment: Comparison of Muradimetide and GM-CSF after intravenous AZT (Example 9); format: in vivo, female Swiss mice; details: AZT 40 mg per kg i.v. days 0-3; Muradimetide 25 mg per kg or mGM-CSF 125 μg per kg i.v. 4 hours before
Protocol: FIGS. 4, 5, 6 and 7 show the effect of a treatment of mice with Muradimetide or with mGM-CSF on the changes in the circulating neutrophils, in the circulating leukocytes or in the circulating monocytes or in the circulating myelocytes, respectively, after an intravenous administration of AZT.
Female Swiss mice were treated intravenously with 40 mg per kg of AZT on days 0, 1, 2 and 3. The groups of mice (5 per group) receive, 4 hours before AZT, either physiological saline, or Muradimetide at 25 mg per kg or mGM-CSF at 125 μg per kg intravenously. Counts are done on days 0, 2, 3, 4 and 8. The asterisks above the histograms indicate that there is a significant difference in the count compared to the values obtained before the treatment on day 0.

[4] = tested on: circulating myelocytes (HSC); experiment: Mobilization of HSC after combined oral treatment with AZT and Muradimetide (Example 4); format: in vivo, mice
Protocol: Table 3 below and FIG. 11 show the effect of an oral treatment of mice with Muradimetide before, at the same time as or after AZT administered at 50 mg per kg, on the number of circulating myelocytes tested 24 hours after 4 daily administrations.
The mean number of circulating myelocytes before the treatment lies between 3 and 15×10^4 cells per ml in the 5 groups.
The "P-value" was calculated by the Mann Whitney U Rank test.

red cells and platelets = experiment: 7-day oral treatment with AZT, muradimetide or both, red cell and platelet counts (Example 3); format: in vivo; details: p.o. once daily for 7 consecutive days; AZT 100 mg/kg, muradimetide 50 mg/kg or both; counts up to day 10
Protocol: The effect of a 7-day treatment on the number of red cells and of platelets is seen in FIGS. 9 and 10, respectively. The counts are shown as a percentage of those obtained on day 0. Female BALB/c mice (5 per group) are treated once daily for 7 consecutive days with 100 mg/kg of AZT (Δ), 50 mg/kg of muradimetide (.quadrature.) or simultaneously with 100 mg/kg of AZT and 50 mg/kg of muradimetide (.largecircle.). Platelet or red cell counts were done on day 0 and up to 10 days following the beginning of the treatment. No toxicity on the platelets is seen, either with AZT, muradimetide or the mixture of these compounds. The upward trend in their number is apparent between days 4 and 5.

For `COC(=O)CC[C@@H](NC(=O)[C@H](C)NC(=O)[C@@H](C)O[C@H]1[C@H](O)[C@@H](CO)OC(O)[C@@H]1NC(C)=O)C(=O)OC` (stereo partly drawn) [Muradimetide, Nac--Mur--L--Ala--D--Glu--[OCH3]--OCH3], the “effect on the number of circulating HSC (GM-CFU, LPP-CFU, HPP-CFU, CAFC; FIGS. 14a-14d)” value [1] was “clearly apparent”, the “No. of Lymphocytes” value ([2]; day 0) was 38 ± 12 × 10^5 /ml and the “No. of Myelocytes” value ([2]; day 0) was 7 ± 6 × 10^4 /ml. For the same compound, the “No. of Neutrophils” value ([2]; day 0) was 11 ± 3 × 10^5 /ml, the “No. of Lymphocytes” value ([2]; day 2) was 41 ± 17 × 10^5 /ml and the “No. of Myelocytes” value ([2]; day 2) was 8 ± 8 × 10^4 /ml. For the same compound, the “No. of Neutrophils” value ([2]; day 2) was 10 ± 3 × 10^5 /ml, the “No. of Lymphocytes” value ([2]; day 3) was 35 ± 13 × 10^5 /ml and the “No. of Myelocytes” value ([2]; day 3) was 40 ± 5 × 10^4 /ml. For the same compound, the “No. of Neutrophils” value ([2]; day 3) was 13 ± 5 × 10^5 /ml, the “No. of Lymphocytes” value ([2]; day 4) was 34 ± 8 × 10^5 /ml and the “No. of Myelocytes” value ([2]; day 4) was 72 ± 27 × 10^4 /ml. The “No. of Neutrophils” value ([2]; day 4) was 12 ± 4 × 10^5 /ml, the “No. of Lymphocytes” value ([2]; day 7) was 38 ± 10 × 10^5 /ml and the “No. of Myelocytes” value ([2]; day 7) was 4 ± 4 × 10^4 /ml. For the same compound, the “No. of Neutrophils” value ([2]; day 7) was 12 ± 4 × 10^5 /ml, the “No. of Leukocytes” value ([2]; day 2) was 52 ± 12 × 10^5 /ml and the “No. of Leukocytes” value ([2]; day 3) was 52 ± 17 × 10^5 /ml. The “No. of Leukocytes” value ([2]; day 4) was 52 ± 15 × 10^5 /ml, the “No. of Leukocytes” value ([2]; day 7) was 50 ± 13 × 10^5 /ml and the “No. of Leukocytes” value ([2]; day of measurement 0) was 50 ± 14 × 10^5 /ml. The “increase in the number of circulating myelocytes” value ([2]; Muradimetide administered alone, days 3 and 4) was “highly significant”, the “HSC in the blood (circulating myelocytes, FIG. 7)” value [3] was “very strong elevation; also recorded: mobilizes HSC” and the “leukocyte and neutrophil counts” value [3] was “markedly pronounced effect”. The “effect on the mobilization of HSC (myelocyte count, FIG. 11)” value ([4]; MDM 25 mg/kg, AZT 50 mg/kg or mixture, oral, days 0-3 and 7-10 (2 weeks)) was “significant effect”, the “No. of circulating myelocytes” value ([4]; p.o., one compound alone at 0 h (AZT 50 mg/Kg or Muradimetide 25 mg/Kg), 24 hours after 4 daily administrations) was 17 ± 15 × 10^4 /ml and the “toxicity on the platelets” value (red cells and platelets) was “No toxicity”.

Source: patent US6267968A, “MDP derivatives and conjugates having haematipoietic function stimulating activity, and compositions containing same” (Vacsyn S.A., priority 1995, dated 2001)
